Data set [1] has as its system CCK-induced disturbance of stomach emptying. The experiment in a line: effect of test substances on CCK-induced disturbances of emptying of the stomach (charcoal transport into duodenum). Format: in vivo, mouse (female NMRI). The procedure:
Doses of CCK lead to substantial blockade of the transpyloric transport of chyme from the stomach into the duodenum. The ability of the test substances to eliminate this blocking effect of CCK was investigated.
Female NMRI mice having body weights of 20-25 g were used in groups of ten animals each. […] A control group received only the Tylose® solution or the solution containing the solubilizer polyethylene glycol in each case. 60 minutes later the animals were given a subcutaneous injection of 80 Ig/kg CCK-8. After a further 5 minutes the animals were each orally administered 0.3 ml of a charcoal suspension (5% charcoal in 2% strength Tylose solution). The mice were sacrificed 5 minutes later and subsequently dissected. They were examined to find whether charcoal suspension had advanced into the duodenum.
The percentage of animals in which the CCK effect was eliminated and charcoal suspension was found in the duodenum after administration of the test substances was determined.

Data set [2] has as its system CCK-induced gallbladder emptying. Briefly: inhibitory effect of test substances on CCK-induced gallbladder emptying (gallbladder weight). It counts as in vivo, mouse (female NMRI). The procedure:
CCK causes a contraction of the muscles of the gallbladder and thus an emptying of the gallbladder. […] Intraperitoneal doses of 0.1 μg/kg CCK-8 may result in the weight of the gallbladders decreasing to about 1/10 of the original weight.
Female NMRI mice having a body weights of 20-25 g were used in groups of 10 animals each. After withdrawal of feed for 24 hours (drinking water ad libitum) the animals received an oral dose of the test substance suspended in a volume of 10 ml/kg of body weight of a 1% strength Tylose® solution (=methylcellulose) or in a volume of 10 ml/kg of body weight of a solubilizer solution which contained 5% glycerol, 87% polyethylene glycol 400, and 8% water. Two control groups each received only the Tylose® solution or the solution containing the solubilizer polyethylene glycol. One of the control groups and all the animals treated with test substance received 0.1 Ig/kg CCK-8 injected i.p. 60 minutes later.
The mice were sacrificed 5 minutes after the CCK-8 administration, and the gallbladders were excised and weighed.
The following Table C lists the percentage inhibition of the CCK-8 effect on gallbladder weights caused by the test substances.

The target of data set [3] is T1, peripheral CCK receptors (pancreas) (Rattus norvegicus, UniProt P30551).
T1 construct: Whole pancreas glands from male Wistar rats with a body weight of 150-300 g; from tissue; host or cells: whole pancreas glands of male Wistar rats, washed homogenate
T1 sequence (P30551 1-444): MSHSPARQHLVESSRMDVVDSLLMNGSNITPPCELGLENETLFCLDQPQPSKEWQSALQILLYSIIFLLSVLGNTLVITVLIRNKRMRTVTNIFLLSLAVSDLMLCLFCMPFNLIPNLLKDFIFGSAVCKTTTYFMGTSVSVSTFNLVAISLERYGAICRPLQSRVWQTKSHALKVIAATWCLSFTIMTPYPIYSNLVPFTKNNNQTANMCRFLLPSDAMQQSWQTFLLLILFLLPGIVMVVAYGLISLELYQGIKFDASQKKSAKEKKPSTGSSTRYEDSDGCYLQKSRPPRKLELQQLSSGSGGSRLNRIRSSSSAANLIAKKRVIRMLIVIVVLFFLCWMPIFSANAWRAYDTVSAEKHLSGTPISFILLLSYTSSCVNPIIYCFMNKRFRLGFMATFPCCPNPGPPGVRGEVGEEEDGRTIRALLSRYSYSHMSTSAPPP
The experiment in a line: peripheral CCK receptor binding affinity on rat pancreas homogenate (inhibition of 3[H]-CCK-8 binding). Details: species or system rat (male Wistar). To be noted: 0.3 nM 3[H]-CCK-8, 90 min, 25° C., pH 7.4, calculated from IC50 by Cheng-Prusoff, read-out: In vitro binding to peripheral CCK receptors (pancreas) pKi values (converted). The procedure: The affinity of the compounds of formula I for peripheral CCK receptors was measured in vitro on rat pancreas homogenate. The inhibition of the binding of the physiologically relevant octopeptide CCK-8 to peripheral CCK receptors by the test substances was determined.
The receptor binding studies were carried out by a modification of the method of van Dijk et al. (J. Neuroscience 4 (1984), 1021-1033), using soya bean trypsin inhibitor (=SBTI) as protease inhibitor. ^3 [H]-CCK-8, code TRK 775, from Amersham Int., having a specific activity of 60-90 Ci/mmol, was used as tritium-labelled CCK-8.
Whole pancreas glands from male Wistar rats with a body weight of 150-300 g, which had been sacrificed by decapitation, were freed of fatty tissue and homogenized for 15 seconds in a 50-fold volume of an ice-cold test buffer solution (10 mmol 2-[4-(2-hydroxyethyl)-piperazin-1-yl]-ethanesulfonic acid (=HEPES), 130 mmol sodium chloride, 5 mmol magnesium chloride, 0.02% bacitracins, 0.01% SBTI, pH 7.4) with a Kinematica Polytron type homogenizer. The homogenates were then centrifuged at 48,000 g for 10 minutes. This washing method was repeated. After the last centrifugation, the residue which was obtained each time in the form of a pellet was suspended in a 550-fold volume of the test buffer solution and immediately used for the measurement.
For the binding test, 500 μl of the tissue homogenate were incubated with 50 μl of test buffer solution or 50 μl of a solution of the compound to be investigated and with 50 μl of a ^3 [H]-CCK-8 solution (final concentration 0.3 nM). The non-specific binding was assumed to be 0.1 μmol CCK-8. The incubation lasted 90 minutes at 25° C. All the compounds were measured 3 times at each of several concentrations.
Aqueous solutions were employed as test substance solutions and were prepared by appropriate dilution of 60×10^-4 molar aqueous stock solutions. Test substances which are sparingly soluble in water were first dissolved in 96% ethanol, and this solution was diluted with sufficient water for the ethanol concentration not to exceed 1.6% by volume in the solution to be tested.
Bound and free ^3 [H]-CCK-8 were separated by filtration through glass fiber filters. The filters were washed twice with 3 ml of HEPES solution each time and then placed in the scintillation solution (SAVE scintillation solution from Packard) in the dark overnight and counted in a Packard TriCarb 1500™liquid scintillation counter. The IC50 of the respective test substance was determined to be that concentration which caused a 50% inhibition of the specific binding of tritiated CCK-8 to the receptors. From this, the corresponding pKi value was calculated using the Cheng-Prusoff equation. […]

Data set [4] is described as follows: determination of the minimum toxic dose. It counts as in vivo, mouse (male). The settings on record: mouse, oral; lowest dose causing death or serious symptoms of toxicity; max 300 mg/kg; 24 h. The procedure: Male mice weighing 20-25 g were given maximum oral doses of 300 mg/kg of the test substance. The animals were observed carefully for three hours for symptoms of toxicity. In addition, all symptoms and deaths were recorded for a period of 24 hours after administration. Concomitant symptoms were likewise observed and recorded. If death or serious symptoms of toxicity were observed, further mice were given increasingly lower doses. The lowest dose which caused death or serious symptoms of toxicity is indicated in the following Table A as the minimum toxic dose.

Where [5] appears, read: dose 1.0 μmol/kg mouse oral, CCK-8 s.c. 60 min later.
[6] abbreviates: dose 10 μmol/kg mouse oral, CCK-8 i.p. 60 min later.
[7] abbreviates: dose 0.215 μmol/kg mouse oral, CCK-8 s.c. 60 min later.
Where [8] appears, read: dose 100 μmol/kg mouse oral, CCK-8 i.p. 60 min later.

Some results are limits rather than exact numbers.

In the case of `CN1C(=O)C(NC(=O)c2cc3cccc4c3n2CC4)N=C(c2ccccc2)c2ccccc21` (stereo not drawn) [Example 33], the “% of Animals in which the CCK Effect was Eliminated” value (“% of Animals” for short) in data set [1] (setting [5]) is reported as 50%. The “% Inhibition of CCK-induced Gallbladder Emptying” value (shortened to “% Inhibition”) in data set [2] (setting [6]) was 19%. Besides, in data set [3], the Ki is 3.72 nM. In data set [4], the Minimum toxic dose is given as more than 300 mg/kg.
With `COc1ccc2c(c1)N(C)C(=O)C(NC(=O)c1cc3cccc4c3n1CCC4)N=C2c1ccccc1F` (stereo not drawn) [Example 9], the “% of Animals” value in data set [1] (setting [7]) was found to be 50%. The “% Inhibition” value in data set [2] (dose 4.6 μmol/kg mouse oral, CCK-8 i.p. 60 min later) was less than 25%; in data set [2] (setting [8]), 99%. For the same compound, the Ki in data set [3] is 0.794 nM. Further, in data set [4], the Minimum toxic dose is more than 300 mg/kg.
Regarding `COc1ccc2c(c1)N(C)C(=O)C(NC(=O)c1cc3cccc4c3n1CCC4)N=C2c1ccccc1` (stereo not drawn) [Example 1, 3-[(4H-Pyrrolo[3,2,1-ij]-5,6-dihydroquinoline-2-carbonyl)-amino]-8-methoxy-1-methyl-2-oxo-5-phenyl-1H-2,3-dihydro-1,4-benzodiazepine], the “% of Animals” value in data set [1] (setting [7]) is given as 50%. The “% Inhibition” value in data set [2] (dose 1 μmol/kg mouse oral, CCK-8 i.p. 60 min later) is on record as less than 25%; in data set [2] (setting [6]), 66%. For the same compound, the Ki in data set [3] is 1.35 nM. Further, the Minimum toxic dose in data set [4] is more than 300 mg/kg.
For the compound `COc1ccc2c(c1)N(C)C(=O)C(NC(=O)c1cc3cccc4c3n1CCC4)N=C2c1ccc(F)cc1F` (stereo not drawn) [Example 15], the “% of Animals” value in data set [1] (setting [5]) amounted to 57%; in data set [1] (dose 0.10* μmol/kg mouse oral, * = administered in solution containing solubilizer (PEG 400)), 90%. The “% Inhibition” value is recorded as less than 25% in data set [2] (setting [6]); 100% in data set [2] (setting [8]); less than 25% in data set [2] (dose 0.1* μmol/kg mouse oral, * = administered in solution containing solubilizer). Moreover, the Ki in data set [3] is 1.23 nM.
Regarding `COc1ccc2c(c1)N(C)C(=O)C(NC(=O)c1cc3cccc4c3n1CCC4)N=C2c1ccccc1` (single isomer, unassigned; (+)) [Example 2b, (+)-3-[(4H-pyrrolo[3,2,1-ij]-5,6-dihydroquinoline-2-carbonyl)-amino]-8-methoxy-1-methyl-2-oxo-5-phenyl-1H-2,3-dihydro-1,4-benzodiazepine], the “% of Animals” value in data set [1] (dose 10 μmol/kg mouse oral, CCK-8 s.c. 60 min later) is 70%. Moreover, in data set [2] (dose 46 μmol/kg mouse oral, CCK-8 i.p. 60 min later), the “% Inhibition” value stood at 8.3%. Also, the Ki in data set [3] was 19.5 nM.
Regarding `COc1ccc2c(c1)N(C)C(=O)C(NC(=O)c1cc3cccc4c3n1CCC4)N=C2c1ccccc1` (single isomer, unassigned; (-)) [Example 2a, (-)-3-[(4H-pyrrolo[3,2,1-ij]-5,6-dihydroquinoline-2-carbonyl)-amino]-8-methoxy-1-methyl-2-oxo-5-phenyl-1H-2,3-dihydro-1,4-benzodiazepine], the “% of Animals” value in data set [1] (dose 0.1 μmol/kg mouse oral, CCK-8 s.c. 60 min later) worked out at 100%. For the same compound, the “% Inhibition” value in data set [2] (dose 0.46 μmol/kg mouse oral, CCK-8 i.p. 60 min later) was 16%. The Ki in data set [3] was 0.257 nM.
On to `CN1C(=O)C(NC(=O)c2cc3cccc4c3n2CCC4)N=C(c2c(F)cccc2F)c2ccccc21` (stereo not drawn) [Example 20], for which the “% of Animals” value in data set [1] (setting [5]) is 50%. The “% Inhibition” value in data set [2] (setting [6]) is listed as 25%. For the same compound, in data set [3], the Ki was 0.851 nM. This compound returned a Minimum toxic dose in data set [4] of more than 300 mg/kg.

(Values after patent US5010076A, “1,7-fused 1H-indole-2-carboxylic acid-N-(1,4-benzodiazepin-3-yl)amides” (Kali-Chemie Pharma GmbH, priority 1989, dated 1991).)
